Article PMC11599207, “Identification of IspD as a novel target for tuberculosis treatment using compound M6” (Frontiers in Microbiology, 2024)

Target: T1, IspD (2-C-methyl-D-erythritol 4-phosphate cytidylyltransferase) (Mycolicibacterium smegmatis, UniProt A0R560)
T1 construct: recombinant IspD from pET28a-ispD, His trap purified, approximately 26 kDa
T1 sequence (A0R560 1-222): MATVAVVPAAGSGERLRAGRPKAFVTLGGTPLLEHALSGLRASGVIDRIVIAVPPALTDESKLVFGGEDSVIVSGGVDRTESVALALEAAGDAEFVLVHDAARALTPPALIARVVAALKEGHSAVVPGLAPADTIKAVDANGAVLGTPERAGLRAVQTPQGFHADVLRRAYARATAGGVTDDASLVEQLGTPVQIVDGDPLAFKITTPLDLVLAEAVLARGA
Assay: ammonium molybdate pyrophosphate absorbance assay; double-reciprocal kinetics
Format: biochemical

Row | SMILES | ammonium molybdate pyrophosphate absorbance assay; double-reciprocal kinetics
1 | Nc1ccn([C@@H]2O[C@H](COP(=O)(O)OP(=O)(O)OP(=O)(O)O)[C@@H](O)[C@H]2O)c(=O)n1 [CTP] | M6 acts as a non-competitive inhibitor of the substrate CTP (Figure 3D)
2 | C[C@](O)(CO)[C@H](O)COP(=O)(O)O [MEP, 2-C-methyl-D-erythritol 4-phosphate] | indicating that M6 acts as a non-competitive inhibitor of the substrate MEP
